Measurements reported in PMC9501810, “Bitter Peptides YFYPEL, [sequence], and [sequence], Released during Gastric Digestion of Casein, Stimulate Mechanisms of Gastric Acid Secretion via Bitter Taste Receptors TAS2R16 and TAS2R38” (Journal of Agricultural and Food Chemistry, 2022).
Values joined by “and” are separate entries in the source; they are usually repeats but may differ in a detail not shown here. Equal entries are not always repeated.

Key:
Format in all cases: cell-based, human
TAS2R4 = assay: RT-qPCR gene expression of TAS2R4 in HGT-1 cells; conditions: VAPFPEVF 17.5 µM, YFYPEL 0.03 µM, YQEPVLGPVRGPFPIIV 0.4 µM, normalized to PPIA and GAPDH and untreated cells, mean, n = 3–5
Protocol: (§1) For mRNA expression analysis, 800,000 cells were seeded in a T25 cell culture flask (25 cm^2) 1 day before the experiment. After incubation with 17.5 μM […], 0.03 μM YFYPEL, or 0.4 μM […] for 15, 30, 60, and 120 min, RNA was isolated using the peqGOLD RNA Kit (VWR Peqlab, USA) following the manufacturer’s protocol. Determination of RNA concentration (A260/A280 between 2.03 and 2.09) was performed on a NanoDrop One^c (Thermo Fisher Scientific Inc., USA). RNA integrity number (RIN 9.9–10.0, version 2.6, assay class Eukaryote Total RNA Nano) was analyzed using a 2100 Bioanalyzer (Agilent Technologies, USA). Removal of gDNA and synthesis of cDNA were performed using the iScript gDNA Clear cDNA Synthesis Kit (BioRad, Feldkirchen, Germany) following the manufacturer’s protocol. Real-time-qPCR (RT-qPCR) was performed with 50 ng cDNA amplified with SsoAdvanced Universal SYBR Green Supermix (Bio-Rad Laboratories, Inc., USA). The sequences of the forward and reverse primers of the 25 TAS2Rs were taken from Liszt et al.([13]) (Supporting Information Table-SI 3). Verified primers for the TAS1Rs (TAS1R1: qHsaCID0013443; TAS1R2: qHsaCID0016106; TAS1R3: qHsaCED0002321) and for MAPK1 (qHsaCEP0050000) were obtained from Bio-Rad Laboratories. PPIA[37] and GAPDH[38] were used as reference genes. The effects of the peptides on gene expression were analyzed in comparison to untreated control cells.

TAS2R5 = assay: RT-qPCR gene expression of TAS2R5 in HGT-1 cells; conditions: VAPFPEVF 17.5 µM, YFYPEL 0.03 µM, YQEPVLGPVRGPFPIIV 0.4 µM, normalized to PPIA and GAPDH and untreated cells, mean, n = 3–5
Protocol: as §1

TAS2R7 = assay: RT-qPCR gene expression of TAS2R7 in HGT-1 cells; conditions: VAPFPEVF 17.5 µM, YFYPEL 0.03 µM, YQEPVLGPVRGPFPIIV 0.4 µM, normalized to PPIA and GAPDH and untreated cells, mean, n = 3–5
Protocol: as §1

TAS2R10 = assay: RT-qPCR gene expression of TAS2R10 in HGT-1 cells; conditions: VAPFPEVF 17.5 µM, YFYPEL 0.03 µM, YQEPVLGPVRGPFPIIV 0.4 µM, normalized to PPIA and GAPDH and untreated cells, mean, n = 3–5
Protocol: as §1

TAS2R14 = assay: RT-qPCR gene expression of TAS2R14 in HGT-1 cells; conditions: VAPFPEVF 17.5 µM, YFYPEL 0.03 µM, YQEPVLGPVRGPFPIIV 0.4 µM, normalized to PPIA and GAPDH and untreated cells, mean, n = 3–5
Protocol: as §1

TAS2R16 = assay: RT-qPCR gene expression of TAS2R16 in HGT-1 cells; conditions: VAPFPEVF 17.5 µM, YFYPEL 0.03 µM, YQEPVLGPVRGPFPIIV 0.4 µM, normalized to PPIA and GAPDH and untreated cells, mean, n = 3–5
Protocol: as §1, with “cells. […]” for “cells.”

TAS2R20 = assay: RT-qPCR gene expression of TAS2R20 in HGT-1 cells; conditions: VAPFPEVF 17.5 µM, YFYPEL 0.03 µM, YQEPVLGPVRGPFPIIV 0.4 µM, normalized to PPIA and GAPDH and untreated cells, mean, n = 3–5
Protocol: as §1

TAS2R31 = assay: RT-qPCR gene expression of TAS2R31 in HGT-1 cells; conditions: VAPFPEVF 17.5 µM, YFYPEL 0.03 µM, YQEPVLGPVRGPFPIIV 0.4 µM, normalized to PPIA and GAPDH and untreated cells, mean, n = 3–5
Protocol: as §1

TAS2R39 = assay: RT-qPCR gene expression of TAS2R39 in HGT-1 cells; conditions: VAPFPEVF 17.5 µM, YFYPEL 0.03 µM, YQEPVLGPVRGPFPIIV 0.4 µM, normalized to PPIA and GAPDH and untreated cells, mean, n = 3–5
Protocol: as §1

TAS2R41 = assay: RT-qPCR gene expression of TAS2R41 in HGT-1 cells; conditions: VAPFPEVF 17.5 µM, YFYPEL 0.03 µM, YQEPVLGPVRGPFPIIV 0.4 µM, normalized to PPIA and GAPDH and untreated cells, mean, n = 3–5
Protocol: as §1

TAS2R42 = assay: RT-qPCR gene expression of TAS2R42 in HGT-1 cells; conditions: VAPFPEVF 17.5 µM, YFYPEL 0.03 µM, YQEPVLGPVRGPFPIIV 0.4 µM, normalized to PPIA and GAPDH and untreated cells, mean, n = 3–5
Protocol: as §1

TAS2R45 = assay: RT-qPCR gene expression of TAS2R45 in HGT-1 cells; conditions: VAPFPEVF 17.5 µM, YFYPEL 0.03 µM, YQEPVLGPVRGPFPIIV 0.4 µM, normalized to PPIA and GAPDH and untreated cells, mean, n = 3–5
Protocol: as §1

TAS2R46 = assay: RT-qPCR gene expression of TAS2R46 in HGT-1 cells; conditions: VAPFPEVF 17.5 µM, YFYPEL 0.03 µM, YQEPVLGPVRGPFPIIV 0.4 µM, normalized to PPIA and GAPDH and untreated cells, mean, n = 3–5
Protocol: as §1

TAS2R50 = assay: RT-qPCR gene expression of TAS2R50 in HGT-1 cells; conditions: VAPFPEVF 17.5 µM, YFYPEL 0.03 µM, YQEPVLGPVRGPFPIIV 0.4 µM, normalized to PPIA and GAPDH and untreated cells, mean, n = 3–5
Protocol: as §1

TAS1R1 = assay: RT-qPCR gene expression of TAS1R1 in HGT-1 cells; conditions: 15/30/60/120 min, VAPFPEVF 17.5 µM, YQEPVLGPVRGPFPIIV 0.4 µM, n = 3
Protocol: as §1

Sequence: YQEPVLGPVRGPFPIIV [bitter casein peptide βA1/A2-CN193–209]
- change in gene expression of TAS2R4 (TAS2R4; incubation 15 min): 0.79 fold change
- change in gene expression of TAS2R4 (TAS2R4; incubation 30 min): 1.71 fold change
- change in gene expression of TAS2R4 (TAS2R4; incubation 60 min): 1.60 fold change
- change in gene expression of TAS2R4 (TAS2R4; incubation 120 min): 1.21 fold change
- change in gene expression of TAS2R5 (TAS2R5; incubation 15 min): 1.25 fold change
- change in gene expression of TAS2R5 (TAS2R5; incubation 30 min): 1.45 fold change
- change in gene expression of TAS2R5 (TAS2R5; incubation 60 min): 1.39 fold change
- change in gene expression of TAS2R5 (TAS2R5; incubation 120 min): 1.22 fold change
- change in gene expression of TAS2R7 (TAS2R7; incubation 15 min): 0.49 fold change
- change in gene expression of TAS2R7 (TAS2R7; incubation 30 min): 0.74 fold change
- change in gene expression of TAS2R7 (TAS2R7; incubation 60 min): 0.70 fold change
- change in gene expression of TAS2R7 (TAS2R7; incubation 120 min): 1.82 fold change
- change in gene expression of TAS2R10 (TAS2R10; incubation 15 min): 0.52 fold change and 0.52 ± 0.06 fold change
- change in gene expression of TAS2R10 (TAS2R10; incubation 30 min): 0.78 fold change
- change in gene expression of TAS2R10 (TAS2R10; incubation 60 min): 0.90 fold change
- change in gene expression of TAS2R10 (TAS2R10; incubation 120 min): 1.04 fold change
- change in gene expression of TAS2R14 (TAS2R14; incubation 15 min): 0.85 fold change
- change in gene expression of TAS2R14 (TAS2R14; incubation 30 min): 1.08 fold change
- change in gene expression of TAS2R14 (TAS2R14; incubation 60 min): 1.03 fold change
- change in gene expression of TAS2R14 (TAS2R14; incubation 120 min): 1.08 fold change
- change in gene expression of TAS2R16 (TAS2R16; incubation 15 min): 2.61 fold change
- change in gene expression of TAS2R16 (TAS2R16; incubation 30 min): 3.46 fold change and 3.46 ± 0.58 fold change
- change in gene expression of TAS2R16 (TAS2R16; incubation 60 min): 2.50 fold change
- change in gene expression of TAS2R16 (TAS2R16; incubation 120 min): 3.00 fold change
- change in gene expression of TAS2R20 (TAS2R20; incubation 15 min): 0.95 fold change
- change in gene expression of TAS2R20 (TAS2R20; incubation 30 min): 1.42 fold change
- change in gene expression of TAS2R20 (TAS2R20; incubation 60 min): 1.38 fold change
- change in gene expression of TAS2R20 (TAS2R20; incubation 120 min): 1.31 fold change
- change in gene expression of TAS2R31 (TAS2R31; incubation 15 min): 0.86 fold change
- change in gene expression of TAS2R31 (TAS2R31; incubation 30 min): 1.43 fold change
- change in gene expression of TAS2R31 (TAS2R31; incubation 60 min): 1.33 fold change
- change in gene expression of TAS2R31 (TAS2R31; incubation 120 min): 0.99 fold change
- change in gene expression of TAS2R39 (TAS2R39; incubation 15 min): 0.53 fold change
- change in gene expression of TAS2R39 (TAS2R39; incubation 30 min): 1.16 fold change
- change in gene expression of TAS2R39 (TAS2R39; incubation 60 min): 0.73 fold change
- change in gene expression of TAS2R39 (TAS2R39; incubation 120 min): 0.53 fold change
- change in gene expression of TAS2R41 (TAS2R41; incubation 15 min): 1.31 fold change
- change in gene expression of TAS2R41 (TAS2R41; incubation 30 min): 1.71 fold change
- change in gene expression of TAS2R41 (TAS2R41; incubation 60 min): 2.95 fold change
- change in gene expression of TAS2R41 (TAS2R41; incubation 120 min): 4.61 fold change and 4.61 ± 2.03 fold change
- change in gene expression of TAS2R42 (TAS2R42; incubation 15 min): 0.62 fold change
- change in gene expression of TAS2R42 (TAS2R42; incubation 30 min): 1.38 fold change
- change in gene expression of TAS2R42 (TAS2R42; incubation 60 min): 1.18 fold change
- change in gene expression of TAS2R42 (TAS2R42; incubation 120 min): 0.94 fold change
- change in gene expression of TAS2R45 (TAS2R45; incubation 15 min): 0.63 fold change
- change in gene expression of TAS2R45 (TAS2R45; incubation 30 min): 1.25 fold change
- change in gene expression of TAS2R45 (TAS2R45; incubation 60 min): 1.06 fold change
- change in gene expression of TAS2R45 (TAS2R45; incubation 120 min): 0.84 fold change
- change in gene expression of TAS2R46 (TAS2R46; incubation 15 min): 0.69 fold change
- change in gene expression of TAS2R46 (TAS2R46; incubation 30 min): 1.73 fold change
- change in gene expression of TAS2R46 (TAS2R46; incubation 60 min): 1.30 fold change
- change in gene expression of TAS2R46 (TAS2R46; incubation 120 min): 1.06 fold change
- change in gene expression of TAS2R50 (TAS2R50; incubation 15 min): 0.67 fold change
- change in gene expression of TAS2R50 (TAS2R50; incubation 30 min): 1.66 fold change
- change in gene expression of TAS2R50 (TAS2R50; incubation 60 min): 1.21 fold change
- change in gene expression of TAS2R50 (TAS2R50; incubation 120 min): 1.07 fold change
- change in expression of TAS1R1 (TAS1R1): no significant effect
